For 26 compounds, IC50 and IC90 results are on record in ChEMBL document CHEMBL4483862, “Open-source discovery of chemical leads for next-generation chemoprotective antimalarials” (2018).

A value given as a limit tells only on which side of the number the result lay.

The assay concerns Plasmodium berghei. Kind of assay: Luciferase/luciferin-expressing antifolate-resistant parasites were used to infect a culture of HepG2 cells that were pre-incubated with compounds. Infected hepatocytes emit light due to the luciferase reaction. Assay results are presented as the percent inhibition of light emission compared to control. […]. The assay is classed as functional. The note with it: sporozoite; for IC90: read-out: LUCIFERASE INFECTION ASSAY - IC90.

Where [1] appears, read: read-out: LUCIFERASE INFECTION ASSAY - IC50.

Broadly, the IC50 is the concentration that inhibits the measured activity by half. One may read the IC90 as the point of the concentration-response curve where the effect stands at 90%. As to `Cc1ccc(Cn2nc(C)cc2C(=O)Sc2ccccc2)cc1`, the IC90 is over 10.2 µM. Moreover, the IC50 under setting [1] is over 10.2 µM.

With `O=C(N/N=C/c1sc(Nc2ccccc2)nc1Cl)c1cc(-c2ccncc2)nc2ccccc12`, the IC90 was over 10 µM. The IC50 under setting [1] is over 10 µM.

`COCCCN1C(=O)N(Cc2ccc3ccccc3c2)C(=O)C12CCN(Cc1ccc(C)cc1)CC2`: the IC90 was over 6.8 µM. For the same compound, the IC50 (PBLUC_HILL_SLOPE 3.14, PBLUC_R_SQUARED 0.039, read-out: LUCIFERASE INFECTION ASSAY - IC50) was 4.02 µM.

Consider `O=c1cc(N2CCCN(c3ccc(C(F)(F)F)cn3)CC2)nc2ccccn12`, for which the IC90 is over 10 µM. Further, for the setting “PBLUC_HILL_SLOPE 2.47, PBLUC_R_SQUARED 0.397, read-out: LUCIFERASE INFECTION ASSAY - IC50”, the IC50 stood at 5.84 µM.

With `CC(C)(C)c1ccc(C(=O)NNC(=O)c2ccc(CSc3ccc(C(F)(F)F)cn3)o2)cc1`, the IC90 was over 6.91 µM. Besides, the concentration for half-maximal inhibition (IC50) under setting [1] is over 6.91 µM.

Take `COc1ccc(-c2cnc3sc(NCCCO)nn23)cc1OC`: the IC90 was found to be 7.9 µM. For the same compound, the IC50 (PBLUC_HILL_SLOPE 3.23, PBLUC_R_SQUARED 0.708, read-out: LUCIFERASE INFECTION ASSAY - IC50) turned out to be 4 µM.

In the case of `Cc1cccc2nc(CSC(=S)NCc3cccnc3)cn12`, the IC90 is over 10 µM. Moreover, the IC50 (HEPG2TOX_HILL_SLOPE 3.71, HEPG2TOX_R_SQUARED 0.958, PBLUC_HILL_SLOPE 13, PBLUC_R_SQUARED 0.345, read-out: LUCIFERASE INFECTION ASSAY - IC50) was 9.61 µM.

Turning to `CCCn1c(=O)n(C)c(=O)c2c(SCc3cccc([N+](=O)[O-])c3)nc(CC(C)C)nc21`, the IC90 is over 10 µM. In addition, the IC50 under setting [1] was over 10 µM.

In the case of `COc1ccc(C(=O)NCC(C)(C)SCc2c(C)cc(C)cc2C)cc1`, the IC90 is over 8.88 µM. Where the note is “PBLUC_HILL_SLOPE 1.94, PBLUC_R_SQUARED 0.532, read-out: LUCIFERASE INFECTION ASSAY - IC50”, the IC50 was determined as 3.09 µM.

Turning to `Nn1c(SCC(=O)c2c[nH]c3ccccc23)nnc1C(F)(F)F`, the IC90 was 8.78 µM. Also, the IC50 (HEPG2TOX_HILL_SLOPE 1.03, HEPG2TOX_R_SQUARED 0.976, PBLUC_HILL_SLOPE 0.599, PBLUC_R_SQUARED 0.712, read-out: LUCIFERASE INFECTION ASSAY - IC50) is 0.224 µM.

`CC(C)c1ccc(N/N=C/c2cc(C#Cc3ccccc3)cs2)cc1`: the IC90 was over 9.58 µM. Besides, the IC50 under setting [1] is over 9.58 µM.

As to `CC(C)(C)c1ccc(CC(=O)N2CCC2(C)C(=O)Nc2cnc3ccccc3c2)cc1` (configuration not stated), the IC90 was found to be 3.72 µM. Moreover, under “HEPG2TOX_HILL_SLOPE 0.158, HEPG2TOX_R_SQUARED 0.645, PBLUC_HILL_SLOPE 10.5, PBLUC_R_SQUARED 0.686, read-out: LUCIFERASE INFECTION ASSAY - IC50”, the IC50 is 3.02 µM.

`N#Cc1cnc2c(Cl)cc(F)cc2c1Cl`: the IC90 is over 10 µM. For the same compound, the IC50 under setting [1] is over 10 µM.

With `O=C1Nc2ccc(Cl)cc2/C1=C/c1nn(Cc2ccccc2)cc1-c1cccnc1`, the IC90 was over 10 µM. Further, the IC50 (FFLUC_HILL_SLOPE 9.69, FFLUC_R_SQUARED 0.424, PBLUC_HILL_SLOPE 9.27, PBLUC_R_SQUARED 0.306, read-out: LUCIFERASE INFECTION ASSAY - IC50) was 8.59 µM.

With `Cc1cc2oc(=O)cc(CN(Cc3ccc(C(=O)NC4CC4)cc3)Cc3ccco3)c2cc1C`, the IC90 stood at 1.83 µM. Further, the IC50 (PBLUC_HILL_SLOPE 3.23, PBLUC_R_SQUARED 0.675, read-out: LUCIFERASE INFECTION ASSAY - IC50) was found to be 0.928 µM.

`CC(=O)c1cc2c(cc1NC(=O)c1ccc(Cn3cccn3)cc1)OCO2`: the IC90 is over 10 µM. Besides, under setting [1], the IC50 is over 10 µM.

Take `O=S(=O)(Nc1cc(C(F)(F)F)cc(C(F)(F)F)c1)c1cc(F)c(Br)cc1F`: the IC90 came to 5.67 µM. The IC50 (HEPG2TOX_HILL_SLOPE 2.12, HEPG2TOX_R_SQUARED 0.942, PBLUC_HILL_SLOPE 3.41, PBLUC_R_SQUARED 0.612, read-out: LUCIFERASE INFECTION ASSAY - IC50) was 2.98 µM.

Take `Cc1ccc(OCc2n[nH]c(=S)n2C2CCCCC2)c2c1CCC2`: the IC90 was over 9.61 µM. Besides, the IC50 (PBLUC_HILL_SLOPE 1.42, PBLUC_R_SQUARED 0.362, read-out: LUCIFERASE INFECTION ASSAY - IC50) was over 9.61 µM.

For `Cc1nc(C(=N)NOC(=O)c2c(-c3c(Cl)cccc3Cl)noc2C)cs1`, the IC90 came to 1.24 µM. Further, under “HEPG2TOX_HILL_SLOPE 7.11, HEPG2TOX_R_SQUARED 0.0768, PBLUC_HILL_SLOPE 8.1, PBLUC_R_SQUARED 0.284, read-out: LUCIFERASE INFECTION ASSAY - IC50”, the IC50 was 0.945 µM.

As to `O=C(Nc1cccc(C(F)(F)F)c1)Nc1ccc2nc(-c3ccco3)nn2c1`, the IC90 was over 10 µM. Where the note is “FFLUC_HILL_SLOPE 40.8, FFLUC_R_SQUARED 0.195, PBLUC_HILL_SLOPE 31.8, PBLUC_R_SQUARED 0.106, read-out: LUCIFERASE INFECTION ASSAY - IC50”, the half-inhibitory concentration (IC50) came out at 9.83 µM.

Take `CS(=O)(=O)c1ccc(C(=O)Nc2ccc(S(=O)(=O)NCc3ccco3)cc2)cc1[N+](=O)[O-]`: the IC90 was over 10 µM. Besides, the IC50 (HEPG2TOX_HILL_SLOPE 11.7, HEPG2TOX_R_SQUARED 0.595, read-out: LUCIFERASE INFECTION ASSAY - IC50) was over 10 µM.

Take `Cc1cc2c(cc1C)NC(c1c(O)ccc3ccccc13)C1C(=O)CC(C)(C)CC1=N2` (configuration not stated): the IC90 is over 8 µM. Also, the IC50 under setting [1] came to 7.67 µM.

In the case of `Cc1cc(=O)nc(N(C(=O)Nc2ccccc2)c2cccc(C(F)(F)F)c2)n1C(=O)Nc1ccccc1`, the IC90 was over 10 µM. The IC50 (PBLUC_HILL_SLOPE 12.5, PBLUC_R_SQUARED 0.105, read-out: LUCIFERASE INFECTION ASSAY - IC50) was found to be 9.27 µM.

Take `O=C(Nn1cnc2sc3c(c2c1=O)CCCC3)c1cc(Br)ccc1O`: the concentration for an effect of 90% (IC90) is over 10 µM. In addition, the IC50 (PBLUC_HILL_SLOPE 11.5, PBLUC_R_SQUARED 0.145, read-out: LUCIFERASE INFECTION ASSAY - IC50) was determined as 9.56 µM.

Take `CC(=O)c1cc2c(N)c(C(=O)OCc3cccc4ccccc34)sc2nc1C`: the IC90 is over 10 µM. Under setting [1], the IC50 was over 10 µM.

In the case of `O=S(=O)(Nc1ccc(C(F)(F)F)cc1Cl)c1cc(C(F)(F)F)ccc1OCC(F)(F)F`, the IC90 was 3.28 µM. The IC50 (HEPG2TOX_HILL_SLOPE 1.76, HEPG2TOX_R_SQUARED 0.989, PBLUC_HILL_SLOPE 2.99, PBLUC_R_SQUARED 0.37, read-out: LUCIFERASE INFECTION ASSAY - IC50) worked out at 1.57 µM.
